# Like-named read-outs stand apart in the source and are kept apart here.
# Tests used:
# sleep/wake stages = test: Polysomnography in telemetered wild-type and OX2R knockout mice; format: in vivo, mouse; details: 30 mg/kg oral
# Method: Polysomnography (PSG) responses to MK-1064 (30 mg/kg) were evaluated following oral administration during the late active phase (administered at Zeitgeber time [ZT] 20:00) either in wild-type or OX2R knockout telemetered mice.
# (a) The mean time spent in active wake, light sleep (LS), SWS, and REM sleep during 30-min intervals was determined in wild-type (left panel; n = 5) and OX2R knockout (right panel; n = 7) mice following administration of MK-1064 30 mg/kg (open circles) relative to vehicle (20% vitamin E TPGS, orally; closed circles) during the late active phase (ZT: 20:00). Time points at which significant differences exist between vehicle and MK-1064 responses are indicated by grey vertical lines (*, **, ***p < 0.05, 0.01, 0.001, respectively; linear mixed-effects model for repeated measures).
# Continuous PSG recordings were performed following oral MK-1064 or vehicle (20% vitamin E d-alpha tocopheryl polyethylene glycol 1000 succinate [TPGS]) administration. In rodents, electrocorticogram (ECoG) and electromyogram (EMG) and locomotor activity measured via radio-telemetry were scored in 10 second epochs to define light sleep (LS; no movement, moderate EMG tone, theta with <50% delta ECoG [0.5–4 Hz]), slow wave sleep (SWS; no gross movement, reduced EMG, >50% delta ECoG) and rapid eye movement sleep (REM; no movement, little to no EMG activity, primarily theta ECoG [4–7 Hz] activity)[42]. Scored data were then grouped and compiled according to condition (vehicle or compound treatment) averaged over the indicated times (30 minutes or 2 hours) and analyzed statistically as previously described[1][14][40][42]
# In male wild-type and Hcrtr1 and 2 homozygous, double knockout mice (Taconic Farms, Germantown, NY), MK-1064 or vehicle was administered during the late active phase (ZT: 20:00, 4 hours before lights on). The effect of compound treatment was assessed using a counterbalanced crossover design in which all animals were alternately treated with drug and vehicle daily for 5 consecutive days with a 2-day intervening washout period. In both mice and rats, the mean time in active wake, LS, SWS and REM sleep was determined for each 30-minute interval. The level of significance for the differences between mean time spent in each stage between the vehicle- and compound-treated groups was determined by a linear mixed-effects model for repeated measures applied t-test, and mean within-subject change relative to vehicle over 2 hours following dosing was analyzed using within-subject ANOVA to determine main effects and one sample t-test to identify significant changes relative to vehicle.
# [1] = Plasma exposure in dogs after oral dosing; format: in vivo, dog; details: for Cmax / Tmax / AUC(0-t): beagle, dog, plasma
# Dog plasma free fraction = format: in vitro ADME
# [2] = Pharmacokinetics, ascending single-dose study in healthy male subjects; format: in vivo; details: human, plasma, single oral doses 5 to 250 mg; for half-life: male, po
# Method: In the ascending single-dose study, doses of MK-1064 ranging from 5 to 250 mg corresponded with dose-dependent changes in measured plasma levels (Fig. 6a). […] The greatest effects were observed between 1 and 4 hours, and effects greatly diminished 8 hours following treatment, consistent with the time course of plasma concentrations of MK-1064.
# (§1) MK-1064 safety, PK and PD were evaluated in a randomised, double-blind, placebo-controlled, alternating panel, single oral ascending-dose first-in-human study (see Fig. 5). Participants were unmedicated healthy male subjects (age 18–45 years) without a history of physical or mental illnesses or sleep abnormalities. Two panels received alternating single ascending oral doses of MK-1064 in up to 5 treatment periods (Panel A: 5, 25, 100 and 200 mg [fasting conditions], 25 mg [fed condition], or matching placebo; Panel B: 10, 50, 150 and 250 mg [all daytime administration], 50 mg [evening administration], or matching placebo). Within each period, subjects were randomized to active treatment (N = 6) and placebo (N = 2) groups. There was a minimum of 3 days between ascending doses occurring between alternating subject panels to enable safety data review; treatments within subject panels were separated by a minimum 7-day washout period. The safety and tolerability of MK-1064 were monitored throughout the study by repeated evaluations of AEs, clinical assessments (semi-recumbent and orthostatic vital signs measurements, 12-lead electrocardiograms (ECGs), physical examinations, neurologic examinations), and safety laboratory tests (chemistry, hematology, urinalysis).
# During each treatment period, blood was collected for PK analysis pre-dose and at time points up to 72 hours post-dose. MK-1064 plasma concentrations were determined by reverse phase high-performance liquid chromatography and detected with tandem mass spectrometry. The lower limit of quantitation was 1 ng/mL and the linear calibration range was 1–1000 ng/mL. PK parameters were calculated with WinNonLin 5.2.1. Values below the assay limit of quantification were indicated with a zero value. PD effects on arousal and mood were assessed by the Karolinska Sleepiness Scale (KSS)[45] and Bond and Lader Visual Analogue Scale (VAS)[46] in exploratory endpoints.
# [3] = Safety and tolerability, ascending single-dose study; format: in vivo, human
# Excerpt: (§2) In the ascending single-dose study, 52 AEs were considered to be related to the study drug, the most common of which was somnolence/sleepiness, drowsiness, and tiredness (15 of 16 subjects dosed with MK-1064), consistent with the intended pharmacological activity. […] In the PSG study, 13 of the 20 subjects enrolled reported ≥1 clinical AE. Of 24 clinical AEs reported, 18 were considered to be related to study treatment, all of which were mild or moderate in intensity. One report of transient sleep paralysis following MK-1064 250 mg was noted, while the most common MK-1064-related AEs were headache (3 subjects), nightmares (2 subjects) and dizziness (1 subject) (Supplementary Table 2).
# as §1
# [4] = Safety and tolerability, PSG study; format: in vivo, human
# Excerpt: as §2
# Twenty healthy male subjects between the ages of 18 and 45 years were recruited to a double-blind, randomized, 4-period, crossover study to evaluate the effects of single doses of MK-1064. Subjects were without a history of physical or mental illnesses, had no history of sleep abnormalities, and were not regularly taking medication. Subject inclusion required a sleep score ≤6 on the Pittsburgh Sleep Quality Index at the time of screening, and qualified subjects underwent a PSG screening prior to randomization to exclude those with latent sleep disturbances. In each of the 4 treatment periods, subjects were randomized to receive single doses of MK-1064 (50, 120, or 250 mg) or matching placebo according to a balanced crossover design (see Fig. 5). Briefly, 20 subjects were randomized to 4 panels (n = 5 each). Each panel then received each of the four treatments (placebo, 50, 120, 250 mg MK-1064) in 4 different study periods where each period allocated the 4 different treatments to the 4 different subject panels. Progression through each period rotated the 4 different treatments among the subject panels such that each panel ultimately received all 4 treatments. In all 4 study periods, subjects were admitted for a pre-dose habituation night. On the following treatment night, subjects were administered a single dose of study medication in a blinded manner approximately 1 hour before their habitual bedtime. Study medication was administered following a ≥4-hour fast. Dosing in different treatment periods was separated by a washout of at least 7 days for each subject. PSG recording commenced at 1 hour post-dose and continued during undisturbed sleep for 8 hours overnight. Visual scoring of each 30-sec epoch of PSG recording to wake or one of four sleep states (S1, S2, SWS, collectively referred to as NREM, and REM) was performed according to standard and established Rechtschaffen and Kales criteria. Obtained scores were then used to calculate efficacy assessment measures including latency to persistent sleep (LPS) (min), wake after sleep onset (WASO) (min), sleep efficiency (SE) (%), and total sleep time (TST) (min). LPS is the time from lights off to the first epoch of 20 consecutive epochs of non-wake stage; WASO is the time in wake stage between the onset of persistent sleep and the time of lights on; and SE is the proportion of time between lights off and lights on that was spent in sleep. In addition to efficacy parameters, latency to REM (LREM) (min), equal to the time from lights off to the first epoch of REM, and the proportion (%) of TST spent in NREM and REM were calculated. Estimation of the effects of treatment on PSG endpoints relative to placebo, including the calculation of confidence intervals and p-values were done using a mixed-effect statistical model typical for crossover studies. Specifically, logarithm of an analyzed endpoint represented the response variable, and treatment dose, treatment period, and carryover effect were fixed-effect explanatory variables. Subject effect was the random effect with the within-subject covariance assumed to be of the unstructured type. […] SAS/STAT® Version 9.3 software (SAS Institute, Cary NC) was used in the analysis.
# [5] = wild-type mice, ZT 20:00, vs vehicle
compound,measurement,setting,value
"COc1ccc(CNC(=O)c2cc(-c3cncc(Cl)c3)cnc2-c2ccccn2)nc1OC [MK-1064, 5″-chloro-N-[(5,6-dimethoxypyridin-2-yl)methyl]-2,2′:5′, 3″-terpyridine-3′-carbo xamide]","changes in wake, SWS and REM in OX2R knockout mice","sleep/wake stages; OX2R knockout mice, ZT 20:00",absent
same,time following treatment with active wake reduction and significant increases in SWS and REM,"sleep/wake stages; wild-type mice, ZT 20:00",up to 3.5 hours
same,REM quantitated over 2 hours,sleep/wake stages; [5],trend toward an increase
same,changes in wake and SWS quantitated over 2 hours,sleep/wake stages; [5],reached significance
same,expected unbound drug levels at 1 hour (~Tmax),[1]; 20 mg/kg oral,approximately 4.4 μM
same,Cmax,[1]; 1 mg/kg oral,1 µM
same,Tmax,[1]; 1 mg/kg oral,0.3 h
same,AUC(0-t),"[1]; 1 mg/kg oral, read-out: AUC0–24",3.4 µM·h
same,Cmax,[1]; 20 mg/kg oral,15.3 µM
same,Tmax,[1]; 20 mg/kg oral,0.8 h
same,AUC(0-t),"[1]; 20 mg/kg oral, read-out: AUC0-24",56.5 µM·h
same,fraction unbound,Dog plasma free fraction,0.286
same,Cmax,[2],0.37 to 8.28 µM
same,Tmax,[2]; read-out: median time of peak concentrations (Tmax),1 to 2 h
same,half-life,[2]; read-out: alpha phase half-life,1.6 to 4 h
same,half-life,[2]; read-out: mean apparent terminal half-life,6.8 to 11.1 h
same,subjects who experienced headaches,[3]; ascending single-dose study,Nine
same,suspected serious adverse reactions,[3]; ascending single-dose study,no suspected serious adverse reactions were observed
same,AEs considered to be related to the study drug,"[3]; ascending single-dose study, 5–250 mg",52
same,"subjects with somnolence/sleepiness, drowsiness, and tiredness","[3]; ascending single-dose study, subjects dosed with MK-1064",15 of 16
same,tolerability,"[3]; both Phase I studies, healthy male subjects",well tolerated
same,MK-1064-related AE dizziness,[4],1 subject
same,MK-1064-related AE headache,[4],3 subjects
same,MK-1064-related AE nightmares,[4],2 subjects
same,clinical AEs reported,[4],24
same,reports of transient sleep paralysis,[4]; 250 mg,One
same,subjects reporting ≥1 clinical AE,"[4]; 20 subjects enrolled, crossover 50, 120, 250 mg and placebo",13 subjects
same,clinical AEs considered to be related to study treatment,[4]; all mild or moderate,18

# — publication PMC4891657, “Orexin 2 Receptor Antagonism is Sufficient to Promote NREM and REM Sleep from Mouse to Man” (Scientific Reports, 2016)
